Paper PMC7603461, “Synthesis and in vitro characterization of the genotoxic, mutagenic and cell-transforming potential of nitrosylated heme” (Archives of Toxicology, 2020)
Where two headings read alike, the source gives them in different places.

Columns and labels:
BALB/c 3T3 cells [1] = assay: Colony forming efficiency (CFE) cytotoxicity assay; settings: for concentration at which cytotoxicity starts: CFE
Experimental: Briefly, 200 BALB/c 3T3 cells were seeded in 60 mm dishes (TPP) filled with 4 ml MEM medium. […] 3-Methylcholanthrene (MCA, Sigma-Aldrich) dissolved in DMSO was used as positive control. On day 4, the medium was removed and 4 ml fresh culture medium were added. On day 9, the cells were washed with saline, fixed with 4 ml ice-cold methanol (Carl Roth) for 10 min and then stained with Giemsa solution (Carl Roth) for 30 min. Finally, the stained dishes were washed with water and air-dried before cell colonies with a diameter of ≥ 2 mm were counted.

BALB/c 3T3 cells [2] = assay: BALB/c 3T3 cell transformation assay (CTA); settings: for cell-transforming potential: controls 61.54 µM DHAA
Experimental: The CTA was performed as previously described (Sasaki et al. [2012a]) and began with the seeding of 2 × 10^4 BALB/c 3T3 cells in 100 mm dishes (TPP) filled with 10 ml MEM medium. On day 1, the cells were incubated with the test substances for three days, followed by a medium change on day 4. From now on, the cells were incubated in DMEM/HAM’s F-12 medium supplemented with 2% (v/v) FCS, 100 µg ml^−1 streptomycin, 100 IU ml^−1 penicillin (all components were obtained from Biochrom) and 2 µg ml^−1 bovine pancreas insulin solution (Sigma-Aldrich). On days 7, 10, 14, 17, 21 and 24, the medium was changed and the cells were finally fixed on day 31 using ice-cold methanol. Lastly, the plates were stained with Giemsa solution and the number of type III foci formed was counted using a stereo microscope (SZX2-ILLT; Olympus, Hamburg, Germany).

Caco-2 cells [3] = assay: WST-1 cytotoxicity assay; format: cell-based, human; settings: 50 µM
Experimental: (§1) The cellular uptake of NO-heme and hematin was qualitatively investigated by using the expression of the intracellular heme-degrading protein heme oxygenase 1 (HO-1) as surrogate marker. Its expression was analyzed via SDS-PAGE and Western blotting in NO-heme-treated Caco-2 cells. Beforehand, the cytotoxicity of the heme species as well as solvents was evaluated using a commercial kit measuring cell viability based on the WST-1 reagent obtained from Roche Diagnostics (Mannheim, Germany) and performed according to the manufacturer's instructions. Briefly, 5 × 10^4 cells/well were seeded in 96-well plates (TPP) and incubated for 24 h. Then, the cells were treated with the test substances in triplicate for a further 24 h before they were washed with phosphate buffered saline (PBS) and incubated for 1.5 h with 100 μl/well medium supplemented with 10% (v/v) WST-1 reagent. Finally, absorption was measured at 450 nm (with a reference wavelength at 650 nm). For HO-1 expression analysis, Caco-2 cells (3 × 10^5/3.5 cm plate) were treated for 24 h as mentioned above, with 2% acetone/H2O and 2% acetone/NaOH serving as solvent controls. […] After final washings steps, proteins were detected with enhanced chemoluminescence using an Azure 300 CL imaging system (Azure biosystems, Dublin, USA). […]

BALB/c 3T3 cells [4] = assay: Single cell electrophoresis assay (comet assay), BALB/c 3T3; format: cell-based, murine; settings: 1 h treatment; for increase of the tail intensity (genotoxic effect): heme species up to 100 µM, nitrite control 100 µM
Experimental: (§2) DNA-damaging effects of NO-heme were determined in Caco-2 and BALB/c 3T3 cells using the single cell electrophoresis assay (comet assay). […] The comet assay was performed as previously reported (Briviba et al. [2016]), with the following modifications: 2.15 × 10^4 cells/well were seeded in 6-well plates (Corning, Kennebunk, USA) and cultivated for five days. At day six after seeding, the cells were treated for 1 h with the different test substances diluted in Hank’s Balanced Salt Solution (HBSS; Lonza). Hydrogen peroxide and iron sulfate (both from Sigma-Aldrich) served as positive controls. After treatment, the cells were prepared as previously published (Briviba et al. [2016]) and incubated in a specific lysis buffer (100 mM Na2EDTA, 1% Triton X-100, […] NaCl, 1% lauroyl sarcosine sodium salt, 10 mM tris(hydroxymethyl)aminomethane [TRIS] and 10% dimethyl sulfoxide; all purchased from Merck, Darmstadt, Germany) for 1 h at 4 °C. Then, microscope slides were incubated in electrophoresis buffer (1 mM Na2EDTA, 300 mM NaOH; Merck) for 20 min at room temperature, followed by an electrophoresis run at 25 V and 300 mA for 40 min. Thereafter, the slides were washed three times with TRIS buffer (0.4 M; pH 7.5) and stained using 85 µl of a 4,6-diamidino-2-phenylindole solution (5 µg ml^−1; Merck). For quantification of the results, 100 cells per slide were analyzed using a DM 400 B fluorescence microscope (Leica, Wetzlar, Germany) connected to the Comet Assay II Image Analysis System (Perceptive Instruments, Halstedt, UK).

Caco-2 cells [5] = assay: Single cell electrophoresis assay (comet assay), Caco-2; format: cell-based, human; settings: for genotoxic effects (tail intensity): Caco-2 cells, 1 h treatment, increasing concentrations of heme species, nitrite control 100 µM
Experimental: as §2

[6] = test system: Salmonella typhimurium strain TA1535
Experimental: (§3) The Ames test was performed according to the pre-incubation method described by Mortelmans and Zeiger ([2000]), albeit with slight modifications. Briefly, the lyophilized Salmonella typhimurium strains TA100 (lot number 5220D, Trinova, Gießen, Germany) and TA1535 (lot number 5209D, Trinova) were cultured overnight in 50 ml nutrient broth no. 2 (Thermo Scientific) at 37 °C. Subsequently, the bacterial cultures were shaken for two hours at 125 rpm and 37 °C until the suspension reached an optical density of 1–1.3 at 600 nm. Then, 100 µl of the suspension were mixed with 500 µl of sodium phosphate buffer (final concentrations: 12 mM NaH2PO4, 88 mM Na2HPO4 [pH 7.4]; all components purchased from Carl Roth) and 50 µl of the test compound. Sodium azide (Sigma-Aldrich) was used as positive control and dissolved in ultrapure water. The bacteria were mixed and incubated with the test compounds for 30 min at 37 °C prior to being plated and further incubated for 48 h at 37 °C. Finally, the number of grown revertant colonies was counted.

[7] = test system: Salmonella typhimurium strain TA100
Experimental: as §3

[8] = test system: heme oxygenase 1 (HO-1) in Caco-2 cells; assay: HO-1 expression as surrogate marker of cellular uptake (SDS-PAGE and Western blotting); format: cell-based, human; settings: 50 and 100 µM, 24-h incubation, compared to control samples
Experimental: as §1

DNA = test system: DNA; set-up: method as in Tamir et al. [1996]; settings: at least tenfold higher than NO-heme; ref Tamir et al. [1996]; cited from earlier work
CHO-K1 cells = format: cell-based, Chinese hamster
Experimental: (§4) The investigation of potential cytotoxic effects induced by NO-heme in CHO-K1 cells was performed using a commercial cell proliferation kit based on the MTT reagent obtained from Roche Diagnostics and performed according to the manufacturer's instructions. Briefly, 3.5 × 10^4 cells/well were seeded in 96-well plates (Greiner Diagnostic, Balingen, Germany). Approximately 24 h later, the cells were treated with different NO-heme and acetone concentrations for another 24 h. Subsequently, cells were incubated with the MTT solution for 4 h, before 100 µl DMSO (Carl Roth) were added and absorbance was measured at a wavelength of 570 nm using a microplate reader (EL600; BioTek Instruments, Winooski, USA). The mitochondrial metabolic activity of NO-heme-treated cells was thereby compared to the vehicle control. The HPRT assay was performed according to OECD test guideline no. 476 (OECD [2016]) without exogenous metabolic activation. Briefly, 5 × 10^5 cells per sample were seeded in a 75 cm^2 cell culture flask (Greiner Bio-One) containing 15 ml of McCoy’s 5A medium. […] After another period of 9 days, colonies resistant to 6-thioguanine were fixed with methanol (Carl Roth), stained with methylene blue (Carl Roth) and counted. For the final evaluation of the test, the absolute number of mutations per one million CHO-K1 cells was calculated.

[9] = exposure to UV light and oxygen (sunlight and air), room temperature
Experimental: For the analysis of stability, NO-heme was stored in 15 ml centrifuge tubes (Greiner Bio-One, Frickenhausen, Germany) under different light and atmospheric conditions. […] The final solution was further diluted in 80% acetone/H2O to a final volume of 12.5 ml and allocated to four centrifuge tubes containing 3 ml each. Two of the NO-heme samples were stored in the dark at room temperature, flushed with nitrogen and additionally sealed with thermoplastic film (Parafilm® M, Sigma-Aldrich). The other samples were incubated at room temperature and exposed to sunlight and air. The NO-heme content of each tube was analyzed by UV–Vis and FTIR spectroscopy after 0, 2, 4 and 24 h of incubation.

murine cell lines = settings: ref Kodama et al. [1976], Görsdorf et al. [1990]; cited from earlier work
CHO-K1-BH4 cells = assay: In vitro mammalian cell gene mutation test (HPRT assay); format: cell-based, Chinese hamster; settings: 4 h treatment, without metabolic activation, 100 µM as well as 200 µM heme species, nitrite control 100 µM
Experimental: as §4

[10] = ref Kodama et al. [1976]; Tsuda and Hasegawa [1990]; Stevanovic et al. [2000]; cited from earlier work
BALB/c 3T3 cells [11] = settings: ref Kodama et al. [1976]; Tsuda and Hasegawa [1990]; Stevanovic et al. [2000]; cited from earlier work
[12] = test system: V79 Chinese hamster lung fibroblasts; set-up: method as in Cajelli et al. ([1987]); settings: ref Cajelli et al. ([1987]); cited from earlier work
[13] = TA1535, pre-incubation method, up to 300 µM NO-heme and hematin, 1.54 mM NaN3, 100 µM NaNO2
[14] = TA100, pre-incubation method, up to 300 µM NO-heme and hematin, 1.54 mM NaN3, 100 µM NaNO2

## O=C1OC(C(O)CO)C(=O)C1=O (stereo not shown) [DHAA, dehydroascorbic acid]
BALB/c 3T3 cells [1]
  concentration at which cytotoxicity starts: 750 µM
BALB/c 3T3 cells [2]; 100 µM NaNO2
  cell-transforming potential: no cell-transforming potential

## C=CC1=C(C)c2cc3[n-]c(cc4[n-]c(cc5nc(cc1n2)C(C)=C5C=C)c(C)c4CCC(=O)O)c(CCC(=O)O)c3C.O.[Fe+2] [hematin]
BALB/c 3T3 cells [1]; up to the maximum concentration of 200 µM
  cytotoxicity: no sign of cytotoxicity
Caco-2 cells [3]; Caco-2 cells, 24 h, WST-1
  relative cell viability: 45 % of the control
BALB/c 3T3 cells [4]
  concentration range with statistically significant increase of tail intensity: 10 to 100 µM
  increase of the tail intensity (genotoxic effect): dose-dependent increase of the tail intensity with statistically significant effects
Caco-2 cells [5]
  genotoxic effects (tail intensity): exhibiting genotoxic effects
[6]; [13]
  mutagenic effects (revertant colonies): no mutagenic effects were detected
[7]; [14]
  mutagenic effects (revertant colonies): no mutagenic effects were detected
BALB/c 3T3 cells [2]; 150 µM, treatment for three days
  amount of type III foci compared to the corresponding solvent control: significant increase
[8]
  expression of HO-1: increased expression of HO-1

## O=NOO [peroxynitrite]
DNA
  concentration needed to induce DNA strand breaks: 1 mM

## nitrosylated heme [NO-heme]
CHO-K1 cells; 50 µM
  relative cell viability: 87%
CHO-K1 cells; 200 µM
  relative cell viability: 59%
Caco-2 cells [3]
  relative cell viability: 43 % of the control
Caco-2 cells [5]
  concentration needed to induce DNA strand breaks: 100 µM
[6]; [13]
  mutagenic effects (revertant colonies): no mutagenic effects were detected
[7]; [14]
  mutagenic effects (revertant colonies): no mutagenic effects were detected
[8]
  expression of HO-1: increased expression of HO-1
[9]
  time until absorbance signals in the UV–Vis spectrum are reduced: two

## [N-]=[N+]=[N-].[Na+] [NaN3, Sodium azide]
[6]; [13]
  mutagenic effects (revertant colonies): Except for the positive control NaN3, no mutagenic effects were detected
[7]; [14]
  mutagenic effects (revertant colonies): Except for the positive control NaN3, no mutagenic effects were detected

## O=N[O-].[Na+] [sodium nitrite, Sodium nitrite]
BALB/c 3T3 cells [1]
  concentration at which cytotoxicity starts: 6000 µM
BALB/c 3T3 cells [4]
  increase of the tail intensity (genotoxic effect): no genotoxic, mutagenic or cell-transforming effects
Murine cell lines
  induction of DNA single strand breaks: did not induce DNA single strand breaks
Caco-2 cells [5]
  genotoxic effects (tail intensity): no genotoxic, mutagenic or cell-transforming effects
[6]
  mutagenic effects (revertant colonies): no genotoxic, mutagenic or cell-transforming effects
[7]
  mutagenic effects (revertant colonies): no genotoxic, mutagenic or cell-transforming effects
CHO-K1-BH4 cells
  frequencies of mutations compared to the solvent controls: no genotoxic, mutagenic or cell-transforming effects
BALB/c 3T3 cells [2]; 100 µM NaNO2
  cell-transforming potential: no cell-transforming potential
BALB/c 3T3 cells [2]; 100 µM NaNO2, listed as nitrite
  cell-transforming potential: no genotoxic, mutagenic or cell-transforming effects
[10]
  concentrations at which mutagenic in the HPRT assay: 1 to 10 mM
BALB/c 3T3 cells [11]
  concentrations leading to malignant transformation of BALB/c 3T3 cells: 1 to 10 mM

## O=CCC=O [MDA, malondialdehyde]
[12]
  mutagenicity in the HGPRT assay: mutagenic potential
